Test results reported in patent US9598677B2, “Use of human biliverdin reductase and fragments thereof for the treatment of protein kinase C-delta and ERK related conditions” (University of Rochester, priority 2009, dated 2017).
Ends that are not written are not given here. * marks the point of attachment. Myristoyl = CCCCCCCCCCCCCC(=O)*

Columns and labels:
PKC-δ [1] = molecular target: T1, PKC-δ (Homo sapiens, UniProt Q05655); assay: PMA-induced PKC-δ membrane translocation, confocal microscopy; assay type: cell-based; set-up: inserting the open reading frame of PKC-δ into the plasmid pDsRed2-C1; expressed in transfected cells; host or cells: 293A; conditions: 10 μM myristoylated peptide, PMA 15 min, FIG. 5E
Procedure: Confocal microscopy: Experimental protocols were based on those described by Edwards et al., “Carboxyl-Terminal Phosphorylation Regulates the Function and Subcellular Localization of Protein Kinase C betall,” J. Biol. Chem. 274:6461-6468 (1999), which is hereby incorporated by reference in its entirety. 293A cells were grown in a chamber slide system (Nalge-Nunc International Corp., Naperville, Ill.). Cells were transfected with pEGFP-hBVR and/or the plasmid expressing Ds2-Red-PKC-δ fusion protein. After a 24 h starvation period, cells were fixed for 10 min in 4% Para-formaldehyde in PBS and permeabilized with 1% Triton X-100 in PBS. The cells were mounted with Vectashield (Vector Laboratories, Inc. Burlingame, Calif.), containing DAPI to visualize the nuclei. Non-transfected cells were permeabilized as above, treated with 1:150 dilution of polyclonal anti-PKC-δ antibodies, washed, blocked, and then treated with polyclonal anti-hBVR antibodies. The PBS-washed cells were then treated with Rhodamine-red-conjugated donkey anti-rabbit IgG antibodies (Jackson ImmunoResearch, West Grove, Pa.) for 30 min, followed by mounting. A Leica TCS SP (model DMRE) confocal microscope was used (Maines et al., “Human Biliverdin Reductase: A Previously Unknown Activator of Protein Kinase C-βII,” J. Biol. Chem. 282:8110-8122 (2007), which is hereby incorporated by reference in its entirety).

recombinant human PKC-δ = assay: PKC-δ kinase assay in vitro (p81 filter / autoradiography); assay type: biochemical; conditions: for phosphorylation of variant peptides as PKC-δ substrates: FIG. 4C; for phosphate incorporated into hBVR-derived peptides by PKC-δ: 10 μM peptide, 30 min at 30° C., FIG. 6C
Procedure: Measurement of PKC-δ activity: In vitro kinase activity assays were performed with active recombinant human PKC-δ kinase (as a GST fusion protein). PKC-δ assay in vitro was performed using 5 ng purified enzyme in a 50 μl assay containing 50 mM HEPES pH 7.4, 10 mM MgCl2, 0.2 mM DTT, sonicated lipid activators (0.5 μg phosphatidylserine and 0.05 μg diacylglycerol) or lipid activators plus PMA (as indicated in appropriate experiments) and PKC-δ substrates. The reaction was started by the addition of 50 μM ATP labeled with 5 μCi [γ-^32P]-ATP. Incubation was performed for 15 min at 30° C., unless otherwise stated. The reaction was terminated on ice, either by the addition of Laemmli buffer followed by SDS-PAGE, transferred to PVDF membrane, and autoradiography, or by the addition of 1 volume 10% phosphoric acid for p81 transfer as described below. For autophosphorylation of PKC-δ 20 μM ATP was used to start the 40-min reaction.
When hBVR or its mutants were tested for their effect on PKC-δ activity, they were pre-incubated for 5 min at room temperature with the PKC prior to substrate addition. The hBVR-derived peptides were used at concentrations indicated in appropriate figures.
When hBVR or its mutants were assayed as the sole substrates for PKC, the incubation conditions were as described above and the incubation was for 40 min at 30° C. unless specified otherwise. The reaction was terminated by the addition of Laemmli buffer, and the reaction products were detected by SDS-PAGE, transfer to PVDF membrane, and autoradiography.
Measurement of PKC-δ activity: PKC-δ assay in vitro was performed using 0.1 ng/μl purified recombinant human PKC-δ kinase with reaction conditions specified by the manufacturer. Effector molecules such as hBVR or peptides were added 5 min prior to substrate. The reaction was started by the addition of [γ-^32P]-ATP (Lerner-Marmarosh et al., “Human Biliverdin Reductase: A Member of the Insulin Receptor Substrate Family with Serine/Threonine/Tyrosine Kinase Activity,” Proc. Natl. Acad. Sci. U.S.A. 102(20):7109-7114 (2005), which is hereby incorporated by reference in its entirety). Reaction products were detected either by gel electrophoresis and autoradiography or by the p81 filter assay. PKC-δ activity on agarose beads was also measured. Cell lysates were immunoprecipitated with anti-PKC-δ antibody followed by protein A/G agarose. The immunoprecipitates were used in kinase reactions containing 50 μM PKC-δ specific peptide substrate as above; incorporation of ^32P was measured by p81 method.

hBVR and PKC-δ = molecular target: T2, hBVR and PKC-δ (Homo sapiens, UniProt Q05655); assay: Co-immunoprecipitation of hBVR and PKC-δ (anti-HA); assay type: cell-based; conditions: myristoylated peptide 2 h, then IGF-1, FIG. 9B
T2 construct: The human PKC-δ open reading frame was amplified by PCR from a human brain cDNA library; expressed in transfected cells; host or cells: HEK293A
Procedure: (§1) Immunoprecipitation was performed on cell lysates prepared as described previously (Lerner-Marmarosh et al., “Regulation of TNF-alpha-Activated PKC-zeta Signaling By the Human Biliverdin Reductase: Identification of Activating and Inhibitory Domains of the Reductase,” FASEB J. 21:3949-3962 (2007), which is hereby incorporated by reference in its entirety). Immunoprecipitates were separated by SDS PAGE, and the proteins blotted to nitrocellulose membrane. The antibodies used for precipitation and for probing the membranes are as described in the specific figure legends.
(§2) Cell Culture, infection, transfection, and co-immunoprecipitation: HEK293A cells were grown and transfected with pcDNA3-HA-hBVR or pcDNA3-PKC-δ plasmids using conditions described elsewhere (Kravets et al., “Biliverdin Reductase, a Novel Regulator for Induction of Activating Transcription Factor-2 and Heme Oxygenase-1,” J. Biol. Chem. 279(19):19916-19923 (2004); Maines et al., “Human Biliverdin Reductase, a Previously Unknown Activator of Protein Kinase C BetaII,” J. Biol. Chem. 282(11):8110-8122 (2007), which are hereby incorporated by reference in their entirety), and overexpression was confirmed by western blotting. […]

PKC-δ and ERK1/2 = molecular target: T3, PKC-δ and ERK1/2 (Homo sapiens, UniProt P27361+P28482+Q05655); assay: Co-immunoprecipitation of PKC-δ and ERK1/2 (anti-ERK1/2); assay type: cell-based; conditions: myristoylated peptide, IGF-1, FIG. 9D
T3 construct: The human PKC-δ open reading frame was amplified by PCR from a human brain cDNA library; expressed in transfected cells; host or cells: HEK293A (PKC-δ transfected; ERK1/2 endogenous)
Procedure: as §1, §2

PKC-δ [2] = molecular target: T1, PKC-δ; assay: PKC-δ activity assay in situ in 293A cells; assay type: cell-based; set-up: The human PKC-δ open reading frame was also cloned in the same vectors; expressed in transfected cells; host or cells: HEK 293A; conditions: 20 μM, added 30 min prior to treatment, FIG. 3C
Procedure: The PKC-δ activity assay in situ was performed by a modification of procedures detailed by Williams and Schrier (Williams et al., Glucose-Induced Protein Kinase C Activity Regulates Arachidonic Acid Release and Eicosanoid Production by Cultured Glomerular Mesangial Cells,” J. Clin. Invest. 92:2889-2896 (1993), which is hereby incorporated by reference in its entirety). Cells were seeded into 48-well plates and transfected with 0.1 μg/well pcDNA3-hBVR. After 24 h, the medium was replaced with a starvation medium (0.1% serum) and incubation continued for another 24 h to synchronize cells. In some wells, PKC inhibitor Rottlerin (20 μM) was added 30 min before addition of PMA (100 nM) for 15 min. In some wells, hBVR-derived peptides were introduced to cells in their myristoylated form. Cells were washed with medium and incubated for 10 min at 30° C. in 50 μl of kinase assay buffer (137 mM NaCl, 5.4 mM KCl, 10 mM MgCl2, 0.3 mM Na2HPO4, 0.4 mM KH2PO4, 25 mM β-glycerophosphate, 5.5 mM D-glucose, 5 mM EGTA, 1 mM CaCl2, 20 mM HEPES (pH 7.2), 50 μg/ml digitonin, 120 μg/ml of PKC-δ specific substrate (ARRKRKGSFFGG; SEQ ID NO: 52) and 100 μM ATP labeled with 10 μCi/ml [γ-^32P]-ATP). The reaction was stopped with the addition of 25 μl of ice-cold 30% (wt/vol) TCA. The TCA-soluble fraction samples were transferred to p81 phospho-cellulose filters. […]

T1 sequence (Q05655 whole entry, the tested form may be a part): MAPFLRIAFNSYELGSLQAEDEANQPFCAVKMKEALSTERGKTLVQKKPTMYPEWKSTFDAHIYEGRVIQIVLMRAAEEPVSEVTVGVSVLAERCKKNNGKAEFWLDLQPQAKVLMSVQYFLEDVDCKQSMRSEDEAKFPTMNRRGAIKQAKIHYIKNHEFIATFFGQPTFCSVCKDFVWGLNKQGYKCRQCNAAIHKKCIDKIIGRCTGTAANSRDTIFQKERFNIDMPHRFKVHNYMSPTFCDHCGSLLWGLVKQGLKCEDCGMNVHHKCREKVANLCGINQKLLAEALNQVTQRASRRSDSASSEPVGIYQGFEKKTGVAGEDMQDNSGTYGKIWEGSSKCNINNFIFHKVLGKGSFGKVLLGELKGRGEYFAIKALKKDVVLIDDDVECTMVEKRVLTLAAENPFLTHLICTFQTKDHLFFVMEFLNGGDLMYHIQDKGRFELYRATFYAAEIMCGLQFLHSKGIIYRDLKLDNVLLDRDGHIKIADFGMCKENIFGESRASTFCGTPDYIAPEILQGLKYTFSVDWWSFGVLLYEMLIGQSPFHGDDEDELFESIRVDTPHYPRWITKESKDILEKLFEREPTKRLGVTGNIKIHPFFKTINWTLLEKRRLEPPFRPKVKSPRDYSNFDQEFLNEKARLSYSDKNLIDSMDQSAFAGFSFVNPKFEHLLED
T3 sequence (Q05655 whole entry): as the sequence (Q05655 whole entry, the tested form may be a part) above
T3 sequence (P27361 2-379 limits assumed): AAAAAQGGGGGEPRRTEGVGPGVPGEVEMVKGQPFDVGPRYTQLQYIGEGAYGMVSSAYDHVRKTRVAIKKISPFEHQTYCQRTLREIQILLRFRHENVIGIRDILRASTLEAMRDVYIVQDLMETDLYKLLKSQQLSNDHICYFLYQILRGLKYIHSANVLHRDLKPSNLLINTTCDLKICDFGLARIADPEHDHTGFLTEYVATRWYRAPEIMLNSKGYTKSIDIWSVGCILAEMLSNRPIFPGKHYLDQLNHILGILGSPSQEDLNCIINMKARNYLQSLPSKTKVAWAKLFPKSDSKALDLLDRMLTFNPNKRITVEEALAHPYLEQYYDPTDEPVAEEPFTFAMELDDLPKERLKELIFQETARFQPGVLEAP
T3 sequence (P28482 2-360 limits assumed): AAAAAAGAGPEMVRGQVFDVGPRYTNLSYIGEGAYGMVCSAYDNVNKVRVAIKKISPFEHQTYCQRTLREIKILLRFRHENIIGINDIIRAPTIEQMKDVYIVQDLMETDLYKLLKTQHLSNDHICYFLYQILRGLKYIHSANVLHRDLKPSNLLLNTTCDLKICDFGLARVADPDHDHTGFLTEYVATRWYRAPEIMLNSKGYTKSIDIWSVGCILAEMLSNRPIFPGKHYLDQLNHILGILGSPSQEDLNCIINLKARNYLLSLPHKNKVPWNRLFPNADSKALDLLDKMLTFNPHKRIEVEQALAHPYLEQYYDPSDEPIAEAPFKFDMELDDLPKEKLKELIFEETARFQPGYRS
T2 sequence (Q05655 whole entry): as the sequence (Q05655 whole entry, the tested form may be a part) above

Compound: SFHFKSGSL (Myristoyl-SFHFKSGSL) [hBVR-based peptide aa230-238]
- PKC-δ translocation to the cell membrane upon PMA (PKC-δ [1]): did not significantly affect
- inhibition of phosphorylation of the commercial substrate (recombinant human PKC-δ; 50 μM substrate/10 μM inhibitor, FIG. 5A): clearly differed

Compound: GLKRNRYLAFHFKSGSL (BVR peptide) [alanine-mutant peptide (hBVR aa222-238), longer alanine-mutant peptide that includes two additional serines]
- phosphorylation of variant peptides as PKC-δ substrates (recombinant human PKC-δ): markedly decreased phosphorylation

Compound: hBVR aa18-23: hBVR-derived peptide containing S21 in consensus PKC phosphorylation motif (RAGSVR; UniProt P53004 18-23, looked up, fragment)
- phosphate incorporated into hBVR-derived peptides by PKC-δ (recombinant human PKC-δ): several fold increase

Compound: GLAANAYLSFHFK (BVR peptide) [second variant of the aa222-234 peptide, upstream lysine and arginine residues replaced by alanine]
- phosphorylation of variant peptides as PKC-δ substrates (recombinant human PKC-δ): not a substrate

Compound: aa290-296: hBVR-derived peptide containing S294 in consensus PKC phosphorylation motif (KYCCSRK; UniProt P53004 290-296, looked up, fragment)
- phosphate incorporated into hBVR-derived peptides by PKC-δ (recombinant human PKC-δ): several fold increase

Compound: GLKRNRYLAFHFK (BVR peptide) [aa222-234 peptide with target serine replaced by alanine]
- phosphorylation of variant peptides as PKC-δ substrates (recombinant human PKC-δ): not a substrate

Compound: FGFPAFSG (BVR peptide) [hBVR-derived hydrophobic (C-box) peptide]
- association between hBVR and PKC-δ, effect of peptide (hBVR and PKC-δ): completely blocked
- association of PKC-δ and ERK1/2, effect of peptide (PKC-δ and ERK1/2): inhibitory

Compound: KKRILHCLGLA (BVR peptide) [hBVR-derived D-box peptide]
- association between hBVR and PKC-δ, effect of peptide (hBVR and PKC-δ): slight decrease in binding
- association of PKC-δ and ERK1/2, effect of peptide (PKC-δ and ERK1/2): failed to block

Compound: CC(=O)c1c(O)c(C)c(O)c(Cc2c(O)c3c(c(C(=O)/C=C/c4ccccc4)c2O)OC(C)(C)C=C3)c1O [Rottlerin, reference compound]
- PKC-δ activation by PMA and hBVR in cells overexpressing the kinase (PKC-δ [2]): significant reduction
